Where two headings read alike, the source gives them in different places.
What was measured:
Format in all cases: cell-based
[1] = tested on: recombinant NL4-3 virus (nef section replaced with Renilla luciferase gene) in MT-2 cells; experiment: HIV cell culture assay (antiviral activity, luciferase readout in infected MT-2 cells)
Protocol: HIV cell culture assay-MT-2 cells, 293T cells and the proviral DNA clone of NL4-3 virus were obtained from the NIH AIDS Research and Reference Reagent Program. MT-2 cells were propagated in RPMI 1640 media supplemented with 10% heat inactivated fetal bovine serum (FBS), 100 μg/ml penicillin G and up to 100 units/mL streptomycin. The 293T cells were propagated in DMEM media supplemented with 10% heat inactivated FBS, 100 μg/mL penicillin G and 100 μg/mL streptomycin. A recombinant NL4-3 proviral clone, in which a section of the nef gene was replaced with the Renilla luciferase gene, was used to make the reference virus used in these studies. The recombinant virus was prepared through transfection of the recombinant NL4-3 proviral clone into 293T cells using Transit-293 Transfection Reagent from Minis Bio LLC (Madison, WI). Supernatent was harvested after 2-3 days and the amount of virus present was titered in MT-2 cells using luciferase enzyme activity as a marker by measuring luciferase enzyme activity. Luciferase was quantitated using the EnduRen Live Cell Substrate from Promega (Madison, WI). Antiviral activities of compounds toward the recombinant virus were quantified by measuring luciferase activity in MT-2 cells infected for 4-5 days with the recombinant virus in the presence of serial dilutions of the compound.
The 50% effective concentration (EC50) was calculated by using the exponential form of the median effect equation where (Fa)=1/[1+(ED50/drug conc.)m] (Johnson V A, Byington R T. Infectivity Assay. In Techniques in HIV Research. ed. Aldovini A, Walker B D. 71-76. New York: Stockton Press. 1990).

uninfected MT2 cells = experiment: Compound cytotoxicity, XTT-based colorimetric assay; conditions: day 4, XTT assay
Protocol: (§1) Compound cytotoxicity and the corresponding CC50 values were determined using the same protocol as described in the antiviral assay except that uninfected cells were used. Cytotoxicity was assessed on day 4 in uninfected MT2 cells by using an XTT (2,3-bis[2-Methoxy-4-nitro-5-sulfophenyl]-2H-tetrazolium-5-carboxyanilide inner salt)-based colorimetric assay (Sigma-Aldrich, St Louis, Mo.).

[2] = as above; conditions: human; uninfected MT2 cells, day 4, XTT assay
Protocol: as §1

[3] = MT-2 cells infected for 4-5 days with recombinant NL4-3 Renilla luciferase virus, luciferase activity, read-out: EC50

Molecule	EC50 [1, 3]	CC50 (uninfected MT2 cells)	EC50 ([1]; Renilla, NL43)	CC50 at 4 days [2]
N—((S)-1-((3P)-3-(4-chloro-1-(2,2-difluoroethyl)-3-(methylsulfonamido)-1H-indazol-7-yl)-7-(2-cyclopropylethoxy)-4-oxo-3,4-dihydropyrido[2,3-d]pyrimidin-2-yl)-2-(3,5-difluorophenyl)ethyl)-2-((3bS,4aR)-3-(difluoromethyl)-5,5-difluoro-3b,4,4a,5-tetrahydro-1H-cyclopropa[3,4]cyclopenta[1,2-c]pyrazol-1-yl)acetamide [Example 22]	0.29 nM	> 500 nM		
N—((S)-1-((3P)-3-(4-chloro-1-methyl-3-(methylsulfonamido)-1H-indazol-7-yl)-4-oxo-7-(pyrimidin-2-ylmethoxy)-3,4-dihydropyrido[2,3-d]pyrimidin-2-yl)-2-(3,5-difluorophenyl)ethyl)-2-((3bS,4aR)-3-(difluoromethyl)-5,5-difluoro-3b,4,4a,5-tetrahydro-1H-cyclopropa[3,4]cyclopenta[1,2-c]pyrazol-1-yl)acetamide [Example 9]	0.03 nM	> 1000 nM		
C[C@H](Oc1ccc2c(=O)n(-c3ccc(Cl)c4c(NS(C)(=O)=O)nn(C)c34)c([C@H](Cc3cc(F)cc(F)c3)NC(=O)Cn3nc(C(F)F)c4c3C(F)(F)[C@@H]3C[C@H]43)nc2n1)C1CCCC1 (atropisomer, axis not shown; (P)) [Example 23, N—((S)-1-((3P)-3-(4-chloro-1-methyl-3-(methylsulfonamido)-1H-indazol-7-yl)-7-((S)-1-cyclopentylethoxy)-4-oxo-3,4-dihydropyrido[2,3-d]pyrimidin-2-yl)-2-(3,5-difluorophenyl)ethyl)-2-((3bS,4aR)-3-(difluoromethyl)-5,5-difluoro-3b,4,4a,5-tetrahydro-1H-cyclopropa[3,4]cyclopenta[1,2-c]pyrazol-1-yl)acetamide]			0.17 nM	> 500 nM
Cn1nc(NS(C)(=O)=O)c2c(Cl)ccc(-n3c([C@H](Cc4cc(F)cc(F)c4)NC(=O)Cn4nc(C(F)F)c5c4C(F)(F)[C@@H]4C[C@H]54)nc4nc(OCCOC5CC5)ccc4c3=O)c21 (atropisomer, axis not shown; (P)) [Example 29, N—((S)-1-((3P)-3-(4-chloro-1-methyl-3-(methylsulfonamido)-1H-indazol-7-yl)-7-(2-cyclopropoxyethoxy)-4-oxo-3,4-dihydropyrido[2,3-d]pyrimidin-2-yl)-2-(3,5-difluorophenyl)ethyl)-2-((3bS,4aR)-3-(difluoromethyl)-5,5-difluoro-3b,4,4a,5-tetrahydro-1H-cyclopropa[3,4]cyclopenta[1,2-c]pyrazol-1-yl)acetamide]			0.034 nM	> 100 nM
Cn1nc(NS(C)(=O)=O)c2c(Cl)ccc(-n3c([C@H](Cc4cc(F)cc(F)c4)NC(=O)Cn4nc(C(F)F)c5c4C(F)(F)[C@@H]4C[C@H]54)nc4nc(OCCC5CC5)ccc4c3=O)c21 (atropisomer, axis not shown; (P)) [Example 24, N—((S)-1-((3P)-3-(4-chloro-1-methyl-3-(methylsulfonamido)-1H-indazol-7-yl)-7-(2-cyclopropylethoxy)-4-oxo-3,4-dihydropyrido[2,3-d]pyrimidin-2-yl)-2-(3,5-difluorophenyl)ethyl)-2-((3bS,4aR)-3-(difluoromethyl)-5,5-difluoro-3b,4,4a,5-tetrahydro-1H-cyclopropa[3,4]cyclopenta[1,2-c]pyrazol-1-yl)acetamide]			0.051 nM	> 500 nM
CO[C@H](C)COc1ccc2c(=O)n(-c3ccc(Cl)c4c(NS(C)(=O)=O)nn(C)c34)c([C@H](Cc3cc(F)cc(F)c3)NC(=O)Cn3nc(C(F)F)c4c3C(F)(F)[C@@H]3C[C@H]43)nc2n1 [Example 31, N—((S)-1-((3P)-3-(4-chloro-1-methyl-3-(methylsulfonamido)-1H-indazol-7-yl)-7-((R)-2-methoxypropoxy)-4-oxo-3,4-dihydropyrido[2,3-d]pyrimidin-2-yl)-2-(3,5-difluorophenyl)ethyl)-2-((3bS,4aR)-3-(difluoromethyl)-5,5-difluoro-3b,4,4a,5-tetrahydro-1H-cyclopropa[3,4]cyclopenta[1,2-c]pyrazol-1-yl)acetamide]			0.019 nM	> 100 nM
CC(C)(C)CCOc1ccc2c(=O)n(-c3ccc(Cl)c4c(NS(C)(=O)=O)nn(CC(F)F)c34)c([C@H](Cc3cc(F)cc(F)c3)NC(=O)Cn3nc(C(F)F)c4c3C(F)(F)[C@@H]3C[C@H]43)nc2n1 (atropisomer, axis not shown; (P)) [Example 14, N—((S)-1-((3P)-3-(4-chloro-1-(2,2-difluoroethyl)-3-(methylsulfonamido)-1H-indazol-7-yl)-7-(3,3-dimethylbutoxy)-4-oxo-3,4-dihydropyrido[2,3-d]pyrimidin-2-yl)-2-(3,5-difluorophenyl)ethyl)-2-((3bS,4aR)-3-(difluoromethyl)-5,5-difluoro-3b,4,4a,5-tetrahydro-1H-cyclopropa[3,4]cyclopenta[1,2-c]pyrazol-1-yl)acetamide]			0.12 nM	> 500 nM
CC(C)COCCOc1ccc2c(=O)n(-c3ccc(Cl)c4c(NS(C)(=O)=O)nn(C)c34)c([C@H](Cc3cc(F)cc(F)c3)NC(=O)Cn3nc(C(F)F)c4c3C(F)(F)[C@@H]3C[C@H]43)nc2n1 (atropisomer, axis not shown; (P)) [Example 25, N—((S)-1-((3P)-3-(4-chloro-1-methyl-3-(methylsulfonamido)-1H-indazol-7-yl)-7-(2-isobutoxyethoxy)-4-oxo-3,4-dihydropyrido[2,3-d]pyrimidin-2-yl)-2-(3,5-difluorophenyl)ethyl)-2-((3bS,4aR)-3-(difluoromethyl)-5,5-difluoro-3b,4,4a,5-tetrahydro-1H-cyclopropa[3,4]cyclopenta[1,2-c]pyrazol-1-yl)acetamide]			0.054 nM	> 100 nM
Cn1nc(NS(C)(=O)=O)c2c(Cl)ccc(-n3c([C@H](Cc4cc(F)cc(F)c4)NC(=O)Cn4nc(C(F)F)c5c4C(F)(F)[C@@H]4C[C@H]54)nc4nc(O)ccc4c3=O)c21 (atropisomer, axis not shown; (P)) [Example 1, N—((S)-1-((3P)-3-(4-chloro-1-methyl-3-(methylsulfonamido)-1H-indazol-7-yl)-7-hydroxy-4-oxo-3,4-dihydropyrido[2,3-d]pyrimidin-2-yl)-2-(3,5-difluorophenyl)ethyl)-2-((3bS,4aR)-3-(difluoromethyl)-5,5-difluoro-3b,4,4a,5-tetrahydro-1H-cyclopropa[3,4]cyclopenta[1,2-c]pyrazol-1-yl)acetamide]			2.7 nM	> 1000 nM
Cn1nc(NS(C)(=O)=O)c2c(Cl)ccc(-n3c([C@H](Cc4cc(F)cc(F)c4)NC(=O)Cn4nc(C(F)F)c5c4C(F)(F)[C@@H]4C[C@H]54)nc4nc(OCCCS(C)(=O)=O)ccc4c3=O)c21 (atropisomer, axis not shown; (P)) [Example 20, N—((S)-1-((3P)-3-(4-chloro-1-methyl-3-(methylsulfonamido)-1H-indazol-7-yl)-7-(3-(methylsulfonyl)propoxy)-4-oxo-3,4-dihydropyrido[2,3-d]pyrimidin-2-yl)-2-(3,5-difluorophenyl)ethyl)-2-((3bS,4aR)-3-(difluoromethyl)-5,5-difluoro-3b,4,4a,5-tetrahydro-1H-cyclopropa[3,4]cyclopenta[1,2-c]pyrazol-1-yl)acetamide]			0.18 nM	> 500 nM
Cn1nc(NS(C)(=O)=O)c2c(Cl)ccc(-n3c([C@H](Cc4cc(F)cc(F)c4)NC(=O)Cn4nc(C(F)F)c5c4C(F)(F)[C@@H]4C[C@H]54)nc4nc(OCc5ccccc5)ccc4c3=O)c21 (atropisomer, axis not shown; (P)) [Example 26, N—((S)-1-(7-(benzyloxy)-(3P)-3-(4-chloro-1-methyl-3-(methylsulfonamido)-1H-indazol-7-yl)-4-oxo-3,4-dihydropyrido[2,3-d]pyrimidin-2-yl)-2-(3,5-difluorophenyl)ethyl)-2-((3bS,4aR)-3-(difluoromethyl)-5,5-difluoro-3b,4,4a,5-tetrahydro-1H-cyclopropa[3,4]cyclopenta[1,2-c]pyrazol-1-yl)acetamide]			0.1 nM	> 100 nM

Source: patent US11919897B2, “Inhibitors of human immunodeficiency virus replication” (VIIV HEALTHCARE UK (No. 5) LIMITED, priority 2018, dated 2024)
